Reference: ChEMBL document CHEMBL1201862, “PubChem BioAssay data set” (2004)
Calls of active or inactive are those of the source. Unless noted, no cut-off for these calls is given here.

Tests used:
[1] = system: MDA-MB-435; test: cells; assay type: functional, cell-based; conditions: Homo sapiens
[2] = cells; assay type: functional, cell-based; conditions: PPC-1
[3] = target: T1, Rac GTPase-activating protein 1 (Homo sapiens, UniProt Q9H0H5); test: blockers of MgcRacGAP-driven Rac1 GTP hydrolysis – biochemical, ADP Hunter fluorescence, primary and confirmatory, confirmation (AID 624330); assay type: functional
T1 sequence (Q9H0H5 whole entry): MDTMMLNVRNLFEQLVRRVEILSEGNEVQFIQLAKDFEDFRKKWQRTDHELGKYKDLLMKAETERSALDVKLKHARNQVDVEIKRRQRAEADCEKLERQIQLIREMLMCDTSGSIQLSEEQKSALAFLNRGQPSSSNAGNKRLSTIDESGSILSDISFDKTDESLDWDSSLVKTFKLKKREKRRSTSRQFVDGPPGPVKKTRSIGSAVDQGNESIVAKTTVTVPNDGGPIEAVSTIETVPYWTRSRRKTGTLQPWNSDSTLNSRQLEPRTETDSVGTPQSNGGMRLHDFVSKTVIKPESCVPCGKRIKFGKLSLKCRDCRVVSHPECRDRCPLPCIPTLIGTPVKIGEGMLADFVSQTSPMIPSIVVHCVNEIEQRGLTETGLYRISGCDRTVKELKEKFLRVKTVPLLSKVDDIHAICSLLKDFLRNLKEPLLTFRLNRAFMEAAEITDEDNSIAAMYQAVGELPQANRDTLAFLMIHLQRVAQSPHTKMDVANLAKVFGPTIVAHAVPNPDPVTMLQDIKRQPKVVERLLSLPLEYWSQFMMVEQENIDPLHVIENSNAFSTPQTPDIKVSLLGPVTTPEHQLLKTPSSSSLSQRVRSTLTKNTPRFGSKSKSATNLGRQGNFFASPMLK

[4] = target: T2, Protein Tat (Human immunodeficiency virus type 1 group M subtype B (isolate HXB2)(HIV-1), UniProt P04608); assay type: functional;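 note: tat binding to TAR RNA read out by fluorescence polarization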
T2 sequence (P04608 whole entry): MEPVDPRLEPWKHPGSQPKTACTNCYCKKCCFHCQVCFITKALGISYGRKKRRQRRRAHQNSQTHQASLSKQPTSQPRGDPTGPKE

[5] = target: Keap1/Nrf2 (Homo sapiens, UniProt Q14145); test: disruptors of Keap1 binding to Nrf2 peptide – biochemical, fluorescence polarization, cherry-picked samples, dose response (AID 588683)
Keap1/Nrf2, sequence (Q16236 whole entry): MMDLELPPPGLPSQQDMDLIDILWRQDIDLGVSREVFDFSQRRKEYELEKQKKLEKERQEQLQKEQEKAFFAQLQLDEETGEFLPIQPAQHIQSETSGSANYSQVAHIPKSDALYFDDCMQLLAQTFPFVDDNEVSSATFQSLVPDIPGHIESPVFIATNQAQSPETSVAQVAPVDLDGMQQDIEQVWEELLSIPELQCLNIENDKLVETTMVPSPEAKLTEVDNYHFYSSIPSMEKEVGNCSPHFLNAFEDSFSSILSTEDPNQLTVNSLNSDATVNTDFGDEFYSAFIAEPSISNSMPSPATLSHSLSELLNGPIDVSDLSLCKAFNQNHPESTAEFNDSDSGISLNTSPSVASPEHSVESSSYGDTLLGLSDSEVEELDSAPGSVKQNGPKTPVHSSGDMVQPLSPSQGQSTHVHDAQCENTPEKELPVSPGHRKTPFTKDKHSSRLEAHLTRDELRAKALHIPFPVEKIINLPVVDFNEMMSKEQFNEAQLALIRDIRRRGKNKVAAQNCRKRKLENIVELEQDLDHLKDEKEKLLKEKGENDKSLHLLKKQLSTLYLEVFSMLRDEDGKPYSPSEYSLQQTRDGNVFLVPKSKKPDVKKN
Keap1/Nrf2, sequence (Q14145 whole entry): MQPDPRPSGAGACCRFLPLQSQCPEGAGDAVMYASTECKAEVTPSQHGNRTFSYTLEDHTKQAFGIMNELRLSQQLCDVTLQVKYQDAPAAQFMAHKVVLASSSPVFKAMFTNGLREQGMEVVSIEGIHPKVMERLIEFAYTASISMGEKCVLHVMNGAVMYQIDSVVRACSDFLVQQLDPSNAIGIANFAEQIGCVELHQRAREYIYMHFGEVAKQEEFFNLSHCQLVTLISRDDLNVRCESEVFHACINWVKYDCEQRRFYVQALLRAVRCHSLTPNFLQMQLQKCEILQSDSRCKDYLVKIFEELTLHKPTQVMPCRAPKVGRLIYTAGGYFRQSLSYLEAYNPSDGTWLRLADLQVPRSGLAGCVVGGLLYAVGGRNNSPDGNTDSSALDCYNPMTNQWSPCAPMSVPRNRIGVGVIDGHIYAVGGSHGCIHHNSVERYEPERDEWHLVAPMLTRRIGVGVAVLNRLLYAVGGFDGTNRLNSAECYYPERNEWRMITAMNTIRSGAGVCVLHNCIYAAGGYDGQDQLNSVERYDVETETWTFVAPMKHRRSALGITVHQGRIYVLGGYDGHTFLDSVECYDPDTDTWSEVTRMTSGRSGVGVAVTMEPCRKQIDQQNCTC

[6] = target: ORF 73 (Human herpesvirus 8, UniProt O40947); test: KSHV LANA DNA-binding disruption – biochemical, fluorescence polarization, cherry-picked samples, dose response (AID 504725); parameters: species or system Human gammaherpesvirus 8;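 note: fluorescence polarization of a labeled DNA duplex reporting LANA DNA binding; potency is for inhibitors that block LANA binding to the DNA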
ORF 73, sequence (O40947 whole entry): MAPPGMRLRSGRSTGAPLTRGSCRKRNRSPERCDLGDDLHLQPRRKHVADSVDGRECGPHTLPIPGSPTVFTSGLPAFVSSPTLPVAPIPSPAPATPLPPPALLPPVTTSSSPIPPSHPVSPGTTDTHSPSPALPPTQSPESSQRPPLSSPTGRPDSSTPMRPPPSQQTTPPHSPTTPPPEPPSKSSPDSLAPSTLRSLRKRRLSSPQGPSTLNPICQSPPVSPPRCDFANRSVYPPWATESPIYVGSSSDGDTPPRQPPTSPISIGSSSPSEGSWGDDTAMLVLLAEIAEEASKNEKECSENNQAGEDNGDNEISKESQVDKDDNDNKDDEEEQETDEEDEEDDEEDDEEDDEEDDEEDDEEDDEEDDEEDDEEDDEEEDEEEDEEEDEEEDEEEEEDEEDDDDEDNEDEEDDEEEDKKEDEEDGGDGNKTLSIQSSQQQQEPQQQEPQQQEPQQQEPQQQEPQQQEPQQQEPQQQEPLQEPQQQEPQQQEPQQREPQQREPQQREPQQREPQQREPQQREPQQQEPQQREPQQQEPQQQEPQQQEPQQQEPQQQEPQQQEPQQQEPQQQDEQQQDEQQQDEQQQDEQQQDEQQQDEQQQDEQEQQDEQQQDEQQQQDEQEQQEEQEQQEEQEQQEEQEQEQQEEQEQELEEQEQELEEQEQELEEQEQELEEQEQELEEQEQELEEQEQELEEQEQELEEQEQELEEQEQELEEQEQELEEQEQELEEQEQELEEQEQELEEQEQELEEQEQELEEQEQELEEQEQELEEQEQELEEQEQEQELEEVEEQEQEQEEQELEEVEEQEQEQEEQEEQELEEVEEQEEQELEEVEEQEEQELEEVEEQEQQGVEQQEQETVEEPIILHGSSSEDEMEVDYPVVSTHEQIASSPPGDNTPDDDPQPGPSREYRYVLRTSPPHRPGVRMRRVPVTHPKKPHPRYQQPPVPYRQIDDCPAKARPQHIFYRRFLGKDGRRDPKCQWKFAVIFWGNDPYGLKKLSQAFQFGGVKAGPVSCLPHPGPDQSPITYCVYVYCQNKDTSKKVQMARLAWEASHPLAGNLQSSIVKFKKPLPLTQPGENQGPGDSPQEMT

[7] = Luminescence Cell-Based Dose Retest to Confirm Inhibitors of Cancer Stem Cells. [Related pubchem assays (depositor defined):AID2717, AID2721]; assay type: functional; conditions: Homo sapiens
[8] = target: Neurotensin receptor type 1 (Homo sapiens, UniProt P30989); assay type: functional;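 note: Image-based confirmatory dose-response assay measuring agonist activity at NTR1; NTR1-expressing U2OS osteosarcoma cells imaged for beta-arrestin GFP spot formation; agonist potency where compounds increase beta-arrestin recruitment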
Neurotensin receptor type 1, sequence (P30989 whole entry): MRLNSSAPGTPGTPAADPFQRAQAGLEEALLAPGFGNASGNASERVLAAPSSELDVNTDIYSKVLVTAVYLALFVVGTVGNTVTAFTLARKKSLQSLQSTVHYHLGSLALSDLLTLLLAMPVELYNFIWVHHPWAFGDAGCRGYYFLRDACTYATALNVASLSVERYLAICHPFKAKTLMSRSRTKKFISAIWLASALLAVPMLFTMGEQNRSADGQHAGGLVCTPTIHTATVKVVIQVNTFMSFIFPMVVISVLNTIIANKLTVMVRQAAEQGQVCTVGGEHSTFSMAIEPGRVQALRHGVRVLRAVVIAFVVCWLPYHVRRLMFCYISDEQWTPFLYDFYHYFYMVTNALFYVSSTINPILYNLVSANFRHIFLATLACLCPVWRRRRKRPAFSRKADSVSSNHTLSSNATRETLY

[9] = target: Neutrophil collagenase (Homo sapiens, UniProt P22894); test: potency against MMP13, MMP2, MMP3, MMP14 – biochemical, probe development, late stage results, selectivity assay for MMP13 inhibitor project, late-stage follow-up, panel member MMP-8 [IC50 Assay] (AID 2067)
Neutrophil collagenase, sequence (P22894 whole entry): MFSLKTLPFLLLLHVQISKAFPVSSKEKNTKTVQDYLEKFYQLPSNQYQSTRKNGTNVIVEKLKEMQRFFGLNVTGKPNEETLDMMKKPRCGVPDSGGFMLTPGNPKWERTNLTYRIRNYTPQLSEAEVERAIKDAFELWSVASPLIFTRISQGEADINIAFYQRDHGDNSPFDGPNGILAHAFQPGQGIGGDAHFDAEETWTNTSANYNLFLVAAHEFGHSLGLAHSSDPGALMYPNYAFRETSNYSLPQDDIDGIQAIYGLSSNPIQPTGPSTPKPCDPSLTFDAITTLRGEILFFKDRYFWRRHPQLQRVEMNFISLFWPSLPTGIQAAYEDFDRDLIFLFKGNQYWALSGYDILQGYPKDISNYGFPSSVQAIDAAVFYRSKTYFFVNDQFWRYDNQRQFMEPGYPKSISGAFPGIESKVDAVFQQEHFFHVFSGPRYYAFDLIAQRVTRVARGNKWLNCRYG

[10] = target: T3, DNA repair and recombination protein RAD54-like (Homo sapiens, UniProt Q92698); test: RAD54 Holliday junction migration blockers – biochemical, fluorescence, cherry-picked samples, dose series, confirmation (AID 651657); assay type: functional
T3 sequence (Q92698 whole entry): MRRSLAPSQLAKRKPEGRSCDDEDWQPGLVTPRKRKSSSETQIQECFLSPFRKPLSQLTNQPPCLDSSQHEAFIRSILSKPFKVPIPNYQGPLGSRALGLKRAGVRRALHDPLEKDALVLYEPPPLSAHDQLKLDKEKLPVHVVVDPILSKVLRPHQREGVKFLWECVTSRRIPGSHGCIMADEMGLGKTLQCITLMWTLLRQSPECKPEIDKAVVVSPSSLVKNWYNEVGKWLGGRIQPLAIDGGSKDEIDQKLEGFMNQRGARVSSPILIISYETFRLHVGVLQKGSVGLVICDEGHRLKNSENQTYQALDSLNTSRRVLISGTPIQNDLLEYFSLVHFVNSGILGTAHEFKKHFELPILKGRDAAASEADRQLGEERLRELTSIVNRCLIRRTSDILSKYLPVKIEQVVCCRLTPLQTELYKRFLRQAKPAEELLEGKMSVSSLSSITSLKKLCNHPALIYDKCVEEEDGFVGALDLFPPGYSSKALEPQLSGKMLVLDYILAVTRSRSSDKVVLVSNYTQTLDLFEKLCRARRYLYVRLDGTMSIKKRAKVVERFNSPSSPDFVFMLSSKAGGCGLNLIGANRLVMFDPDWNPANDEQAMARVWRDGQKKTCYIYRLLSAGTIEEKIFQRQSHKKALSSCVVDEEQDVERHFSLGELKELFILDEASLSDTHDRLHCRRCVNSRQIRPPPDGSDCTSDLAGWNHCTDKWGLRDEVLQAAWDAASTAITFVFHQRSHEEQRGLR

[11] = target: Bcl-2-like protein 10 (Homo sapiens, UniProt Q9HD36); test: Bcl-B/TR3 peptide binding disruption – biochemical, fluorescence polarization, FITC-TR3 peptide, selectivity assay for Bfl-1 inhibitor project, primary screen (AID 748);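 note: fluorescence polarization from a fluorescein-labelled TR3 peptide binding purified Bcl-B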
Bcl-2-like protein 10, sequence (Q9HD36 whole entry): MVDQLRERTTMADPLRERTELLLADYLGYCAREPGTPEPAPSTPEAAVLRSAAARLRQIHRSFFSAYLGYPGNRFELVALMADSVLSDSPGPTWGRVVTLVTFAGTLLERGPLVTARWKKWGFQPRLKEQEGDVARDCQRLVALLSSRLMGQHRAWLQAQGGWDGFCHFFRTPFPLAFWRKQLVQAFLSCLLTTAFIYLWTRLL

SMILES: COc1cc(-c2ccccc2)nc(S)n1
- IC50 [1]: > 10 µM (inactive)
- IC50 [2]: > 10 µM (inactive)

SMILES: Cc1nc2ccccc2n2c(O)c(CC(=O)O)cc12
- IC50 [3]: 35 µM (active)
- IC50 [4]: 6.32 µM (inconclusive)
- AC50 [5]: 12.3 µM (active)
- AC50 [6]: 10 µM (active)

SMILES: CC1=C(C(=O)OC2CCCCCCC2)C(c2cc3c(cc2Br)OCO3)CC(=O)N1 (stereo unspecified)
- AC50 [7]: 3.59 µM (active)
- EC50 [8]: 18.2 µM (active)

SMILES: Oc1nc(SCc2ccc(Cl)cc2)nc2c1CCC2
- IC50 [9]: > 39.8 µM (active)

SMILES: CN(C)CCSc1nc(N)c2c3c(sc2n1)CN(C)CC3
- AC50 [10]: 28.9 µM (active)
- IC50 [11]: 46.2 µM (active)
